Like-named read-outs stand apart in the source and are kept apart here.
Legend:
Assay in all cases: 96-well microtiter plate assay, fungal growth inhibition
B. cinerea = assay type: cell-based, Botrytis cinerea; details: Botrytis cinerea, read-out: Percent inhibition−Percent Stimulation±SEM
From the text: (§1) Pathogen production. Isolates of Colletotrichum acutatum Simmonds, Colletotrichum fragariae Brooks, and Colletotrichum gloeosporioides (Penz.) Penz. & Sacc. in Penz. were obtained from B. J. Smith, USDA, ARS, Small Fruit Research Station, Poplarville, Miss. Colletotrichum fragariae (isolate CF63), C. acutatum (isolate CAGoff), and C. gloeosporioides (isolate CG162) were used for all pathogen and bioautography studies. Isolate CF63 is one of the most virulent isolates at infecting strawberry plants and inducing both crown and fruit rot (Smith and Black, 1990). CF63, CAGoff, and CG162 were used as standard test isolates because of our extensive knowledge of these isolates and their known fungicide sensitivity profiles in both bioautography and microtiter formats. The three Colletotrichum species were isolated from strawberry (Fragaria x ananassa Duchesne). Botrytis cinerea Pers.: Fr, was isolated from commercial grape (Vitis vinifera L.) and Fusarium oxysporum Schlechtend: Fr from orchid (Cynoches sp.). Phomopsis viticola (Sacc.) and P. obscurans (Ellis & Everh.) Sutton were from Mike A. Ellis, Ohio State University, Wooster, Ohio. Fungi were grown on potato-dextrose agar (PDA, Difco, Detroit, Mich.) in 9 cm petri dishes and incubated in a growth chamber at 24±2° C. and under cool-white fluorescent lights ([…]·m^−2·sec^−1 light) with 12 hour photoperiod.
(§2) Inoculum preparation. Conidia were harvested from 7-10 day-old cultures by flooding plates with 5 mL of sterile distilled water and dislodging conidia by softly brushing the colonies with an L-shaped glass rod. Conidial suspensions were filtered through sterile miracloth (Calbiochem-Novabiochem Corp., La Jolla, Calif.) to remove mycelia. Conidia concentrations were determined photometrically, from a standard curve based on the percent of transmittance (% T) at 625 nm and suspensions were then adjusted with sterile distilled water to a concentration of 1.0×10^6 conidia/mL.
(§3) Microtiter assay. A standardized 96-well microtiter plate assay developed for discovery of natural product fungicidal agents was used to evaluate naturally occurring antifungal agents from Macaranga monanara. A 96-well microtiter assay was used to determine sensitivity of B. cinerea, C. acutatum, C. fragariae, C. gloeosporioides, F. oxysporum, Phomopsis viticola, and P. obscurans to the various antifungal agents in comparison with known fungicidal standards. Vinclozolin, captan, and thiabendazole, which represent three different modes of action, were used as standards in this experiment. Each fungus was challenged in a dose-response format using test compounds where the final treatment concentrations were 0.3, 3.0 and 30.0 μM. Microtiter plates (Nunc MicroWell, untreated; Roskilde, Denmark) were covered with a plastic lid and incubated in a growth chamber as described previously for fungal growth. Growth was then evaluated by measuring absorbance of each well at 620 nm using a microplate photometer (Packard Spectra Count, Packard Instrument Co., Downers Grove, Ill.). Microtiter plates (Nunc MicroWell, untreated; Roskilde, Denmark) were covered with a plastic lid and incubated in a growth chamber at 24±1° C. and 12 hour photoperiod under 60±5 μmol light. Growth was then evaluated by measuring absorbance of each well at 620 nm using a microplate photometer (Packard Spectra Count, Packard Instrument Co., Downers Grove, Ill.).
(§4) Microbioassy Experimental Design. Chemical sensitivity each of B. cinerea, C. acutatum, C. fragariae, C. gloeosporiodes, F. oxysporum, Phomopsis viticola, and P. obscurans was evaluated using 96-well plate microbioassay format. Each chemical was evaluated in duplicate at each dose (0.3, 3.0 and 30.0 μM). […]

F. oxysporum = assay type: cell-based, Fusarium oxysporum; details: Fusarium oxysporum, read-out: Percent inhibition−Percent Stimulation±SEM
From the text: as §1, §2, §3, §4

C. acutatum = assay type: cell-based, Colletotrichum acutatum; details: Colletotrichum acutatum, read-out: Percent inhibition−Percent Stimulation±SEM
From the text: as §1, §2, §3, §4

C. gloeosporioides = assay type: cell-based, Colletotrichum gloeosporioides; details: Colletotrichum gloeosporioides, read-out: Percent inhibition−Percent Stimulation±SEM
From the text: as §1, §2, §3, §4

C. fragariae = assay type: cell-based, Colletotrichum fragariae; details: Colletotrichum fragariae, read-out: Percent inhibition−Percent Stimulation±SEM
From the text: as §1, §2, §3, §4

Question: `CCCCNC(=O)n1c(NC(=O)OC)nc2ccccc21` [Benomyl] was tested. Which inhibition at 0.3 µM (B. cinerea; 48 h) did it give?
Answer: 50 ± 26.9%

Question: What about the inhibition at 3 µM (B. cinerea; 48 h) of the same compound?
Answer: 21.6 ± 27.3%

Question: And the inhibition at 30 µM (B. cinerea; 48 h)?
Answer: 39.9 ± 20.4%

Question: And the inhibition at 0.3 µM (B. cinerea; 72 h)?
Answer: 71.2 ± 25.1%

Question: What about the inhibition at 3 µM (B. cinerea; 72 h) of the same compound?
Answer: 40.9 ± 22%

Question: And the inhibition at 30 µM (B. cinerea; 72 h)?
Answer: 47.3 ± 14.9%

Question: And the inhibition at 0.3 µM (F. oxysporum; 48 h)?
Answer: 3.3 ± 4.7%

Question: What about the inhibition at 3 µM (F. oxysporum; 48 h) of the same compound?
Answer: 12 ± 3%

Question: And the inhibition at 30 µM (F. oxysporum; 48 h)?
Answer: 86.3 ± 1.6%

Question: And the inhibition at 0.3 µM (F. oxysporum; 72 h)?
Answer: -1.6 ± 3.2%

Question: What about the inhibition at 3 µM (F. oxysporum; 72 h) of the same compound?
Answer: 0.8 ± 3.5%

Question: What about the inhibition at 30 µM (F. oxysporum; 72 h) of the same compound?
Answer: 77.2 ± 2.3%

Question: And the inhibition at 0.3 µM (C. acutatum; 48 h)?
Answer: 24.6 ± 6.1%

Question: And the inhibition at 3 µM (C. acutatum; 48 h)?
Answer: 20.3 ± 4.8%

Question: And the inhibition at 30 µM (C. acutatum; 48 h)?
Answer: 16.6 ± 6.3%

Question: What about the inhibition at 0.3 µM (C. acutatum; 72 h) of the same compound?
Answer: -7.7 ± 6.6%

Question: What about the inhibition at 3 µM (C. acutatum; 72 h) of the same compound?
Answer: 47.7 ± 4.1%

Question: What about the inhibition at 30 µM (C. acutatum; 72 h) of the same compound?
Answer: -15.2 ± 3.7%

Question: What about the inhibition at 0.3 µM (C. gloeosporioides; 48 h) of the same compound?
Answer: 47.5 ± 9.2%

Question: What about the inhibition at 3 µM (C. gloeosporioides; 48 h) of the same compound?
Answer: 84.2 ± 3.8%

Question: And the inhibition at 30 µM (C. gloeosporioides; 48 h)?
Answer: 82.4 ± 4%

Question: What about the inhibition at 0.3 µM (C. gloeosporioides; 72 h) of the same compound?
Answer: 16.1 ± 6.5%

Question: And the inhibition at 3 µM (C. gloeosporioides; 72 h)?
Answer: 59.9 ± 9.6%

Question: What about the inhibition at 30 µM (C. gloeosporioides; 72 h) of the same compound?
Answer: 44.8 ± 8.6%

Question: What about the inhibition at 0.3 µM (C. fragariae; 48 h) of the same compound?
Answer: 51.5 ± 5%

Question: And the inhibition at 3 µM (C. fragariae; 48 h)?
Answer: 89.6 ± 1.2%

Question: And the inhibition at 30 µM (C. fragariae; 48 h)?
Answer: 92.4 ± 1.1%

Question: And the inhibition at 0.3 µM (C. fragariae; 72 h)?
Answer: 36.8 ± 4.4%

Question: And the inhibition at 3 µM (C. fragariae; 72 h)?
Answer: 92.7 ± 1%

Question: What about the inhibition at 30 µM (C. fragariae; 72 h) of the same compound?
Answer: 94.3 ± 0.9%

Question: What does the source list for `CC(C)NC(=O)N1CC(=O)N(c2cc(Cl)cc(Cl)c2)C1=O` [Iprodione]?
Answer: inhibition at 0.3 µM (B. cinerea; 48 h): -10.4 ± 11.1%; inhibition at 3 µM (B. cinerea; 48 h): 34.2 ± 29.1%; inhibition at 30 µM (B. cinerea; 48 h): 38.1 ± 29.3%; inhibition at 0.3 µM (B. cinerea; 72 h): 28.3 ± 27.9%; inhibition at 3 µM (B. cinerea; 72 h): 43.3 ± 20.5%; inhibition at 30 µM (B. cinerea; 72 h): 41.3 ± 20.6%; inhibition at 0.3 µM (F. oxysporum; 48 h): 1.8 ± 2.6%; inhibition at 3 µM (F. oxysporum; 48 h): 8.3 ± 3.1%; inhibition at 30 µM (F. oxysporum; 48 h): 7.7 ± 4.6%; inhibition at 0.3 µM (F. oxysporum; 72 h): -2.3 ± 3%; inhibition at 3 µM (F. oxysporum; 72 h): -4.1 ± 4%; inhibition at 30 µM (F. oxysporum; 72 h): -11.2 ± 5.3%; inhibition at 0.3 µM (C. acutatum; 48 h): -26.4 ± 10.7%; inhibition at 3 µM (C. acutatum; 48 h): -18.1 ± 3.2%; inhibition at 30 µM (C. acutatum; 48 h): -27.9 ± 5.5%; inhibition at 0.3 µM (C. acutatum; 72 h): -26.8 ± 9.9%; inhibition at 3 µM (C. acutatum; 72 h): -10.7 ± 3.1%; inhibition at 30 µM (C. acutatum; 72 h): -64.8 ± 4%; inhibition at 0.3 µM (C. gloeosporioides; 48 h): -33.4 ± 10.1%; inhibition at 3 µM (C. gloeosporioides; 48 h): -49.6 ± 8.4%; inhibition at 30 µM (C. gloeosporioides; 48 h): 23.4 ± 9.1%; inhibition at 0.3 µM (C. gloeosporioides; 72 h): -17.5 ± 6.7%; inhibition at 3 µM (C. gloeosporioides; 72 h): -30.7 ± 4%; inhibition at 30 µM (C. gloeosporioides; 72 h): -17.4 ± 7.9%; inhibition at 0.3 µM (C. fragariae; 48 h): -36.4 ± 12.3%; inhibition at 3 µM (C. fragariae; 48 h): -42.6 ± 10.4%; inhibition at 30 µM (C. fragariae; 48 h): -63.2 ± 10.7%; inhibition at 0.3 µM (C. fragariae; 72 h): -17.1 ± 3.6%; inhibition at 3 µM (C. fragariae; 72 h): -24 ± 4.6%; inhibition at 30 µM (C. fragariae; 72 h): -57.7 ± 12%
